Data as given in patent publication US20250340556A1, “PYRIMIDOPYRIMIDONE COMPOUNDS AND METHODS OF USE THEREOF” (Soltego, Inc., priority 2022, published 2025).
Entries after “also recorded” stand apart in the source; their conditions may differ. Read-outs that look alike come from different tables or passages of the source.

What was measured:
[1] = test system: living human skin explants; experiment: Pigmentation of living human skin explants ex vivo (Example 10); type: cell-based; settings: 15 mM and 21 mM, 5 μL/cm2 topically each day for 6 days
Procedure: SLT-045 (3, 7, 15, 21 mM; 5 μL/cm2) in vehicle (44.9% DMSO/37.5% EtOH/17.4% propylene glycol) was applied topically applied using a Pasteur pipette, each day for 6 days using triplicate skin samples (8 mm punch).

[2] = ester bond, 14-membered ring
SIK2 (h) = SIK2 (h) (Homo sapiens (Human), UniProt Q9H0K1); experiment: SIK2 kinase activity, Eurofins KinaseProfiler ([γ-33P]-ATP filter assay); type: biochemical; settings: Table 6, macrocycles; read-out: IC50 nM SIK2
Procedure: (§1) SIK1, 2 and 3 kinase activity was assessed using a Eurofins Cerep S.A. (‘Eurofins’) KinaseProfiler. All compounds were prepared to 50× final assay concentration in 100% DMSO. This working stock of the compound was added to the assay well as the first component in the reaction, followed by the remaining components as detailed in the general assay protocols below. In the standard KinaseProfiler service, there is no pre-incubation step between the compound and the kinase prior to initiation of the reaction. The positive control well contains all components of the reaction, except the compound of interest; however, DMSO (at a final concentration of 2%) is included in these wells to control for solvent effects. The blank wells contain all components of the reaction, with a reference inhibitor replacing the compound of interest. This abolishes kinase activity and establishes the base-line (0% kinase activity remaining).
(§2) SIK2 (h) was incubated with 8 mM MOPS pH 7.0, 0.2 mM EDTA, 100 μM […], 10 mM Magnesium acetate and [γ-33P-ATP](specific activity and concentration as required). The reaction was initiated by the addition of the Mg/ATP mix. After incubation for 40 minutes at room temperature, the reaction was stopped by the addition of phosphoric acid to a concentration of 0.5%, 10 μL of the reaction was then spotted onto a P30 filtermat and washed four times for 4 minutes in 0.425% phosphoric acid and once in methanol prior to drying and scintillation counting.

B16 4A5 cells = experiment: B16 4A5 cell viability, MTS assay; type: cell-based, mouse; settings: 5 μg/mL, 72 h, compared with DMSO 0.1% control
Procedure: B16 4A5 cells were seeded in 24-well plates at 20,000 cells/well, 24 h before the beginning of the treatment with test compounds at 5 concentrations, in triplicates (n=3). […] Additionally, DMSO at 0.1%, used for solubilization of the test compounds, was tested in parallel. The treatments were performed in culture medium containing only 1% of FBS. […] The effects of the compounds on B16 4A5 viability was assessed. To this purpose, cells were incubated during 72 h with 5 concentrations of the compounds, were left untreated, treated with SDS or with DMSO 0.1%.

[3] = test system: living human skin explants; experiment: Cell viability of living human skin explants, Masson's trichrome staining (Example 8); type: cell-based; settings: 1% topical in vehicle E
Procedure: All the tested products were diluted in the vehicle noted as E (Ethanol 65%, Propylene glycol 25%, Transcutol 10%). The diluted solutions were stored at 4° C. within the study period. 36 human skin explants of an average diameter of 11 mm (+1 mm) were prepared on an abdoplasty coming from a person (reference: P2462-AB53) with a III phototype. The explants were kept in survival in BEM culture medium (BIO-EC's Explants Medium) at 37° C. in a humid, 5%-CO2 atmosphere. Study is performed on human skin tissue, obtained from surgical residues in full respect with the Declaration of Helsinki and the article L. 1243-4 of the French Public Health Code.
The excipient E and the tested products were applied topically at a rate of 2 μL per 1 cm^2 explant (˜2 mg/cm^2) and spread and gently rubbed for 10 seconds using a small spatula on day 0 (DO), D3, D5, D7 and D10. […] The culture medium was half renewed (1 ml per well) on D3, D5, D7 and D10. On D0, D3, D4, D5, D6, D7 and D10, the culture media of the irradiated explants (UV) were replaced by HBSS (Hank's Balanced Saline Solution; 1 ml per explant). Then, the explants of the “UV” batch were irradiated using a UV simulator Vibert Lourmat RMX 3W with a dose of 2.25 J/cm^2 of UVA (with 6-8% of UVB) corresponding to 0.5 MED (minimal erythemal dose) on a skin with a III phototype. At the end of the UV irradiation, the explants form the batch TUV were put back in 2 mL of BEM medium. On D0, the 3 explants from the batch TO were collected and cut in two parts. Half was fixed in buffered formalin solution and half was frozen at −80° C. On D10, 3 explants from the concerned batches were collected and treated in the same way than in DO. According to the dispositions mentioned in the study plan, the days of treatments, irradiations and sampling were adjusted to the schedule of working days. After fixation for 24 hours in buffered formalin, the samples were dehydrated and impregnated in paraffin using a Leica PEARL dehydration automat. The samples were embedded using a Leica EG 1160 embedding station. 5-μm-thick sections were made using a Leica RM 2125 Minot-type microtome, and the sections were mounted on Superfrost® histological glass slides. The frozen samples were cut into 7-μm-thick sections using a Leica CM 3050 cryostat. Sections were then mounted on Superfrost®, plus silanized glass slides. The microscopical observations were realized using a Leica DMLB or Olympus BX43 microscope. Pictures were digitized with a numeric DP72 Olympus camera with CellSens storing software.
The cell viability of the epidermal and dermal structures was assessed by microscopical observation of formalin-fixed paraffin-embedded (FFPE) skin sections after Masson's trichrome staining, Goldner variant.

[4] = test system: living human skin explants; experiment: Melanin in living human skin explants, Fontana-Masson staining (Example 9); type: cell-based; settings: for melanin content (staining, microscopical observation): Propylene glycol 30%; for surface occupied by melanin in the basal cell layer of the epidermis: vehicle E 7.9
Procedure: All the tested products were diluted in the vehicle (Ethanol 70%, Propylene glycol 30%). 24 human skin explants of an average diameter of […] were prepared on an abdoplasty coming from a person (reference: P2511-AB43) with a II phototype. The explants were kept in survival in BEM culture medium (BIO-EC's Explants Medium) at 37° C. in a humid, 5%-CO2 atmosphere. Products were applied topically at a rate of 2 μL per 1 cm^2 explant (2 mg/cm^2) and spread and gently rubbed for 10 seconds using a small spatula on day 0 (D0), D2, D5 and D7. […] The culture medium was half renewed (1 ml per well) on D2, D5 and D7. After fixation for 24 hours in buffered formalin, the samples were dehydrated and impregnated in paraffin using a Leica PEARL dehydration automat. The samples were embedded using a Leica EG 1160 embedding station. 5-μm-thick sections were made using a Leica RM 2125 Minot-type microtome, and the sections were mounted on Superfrost® histological glass slides. The frozen samples were cut into 7-μm-thick sections using a Leica CM 3050 cryostat. Sections were then mounted on Superfrost® plus silanized glass slides. The microscopical observations were realized using a Leica DMLB or Olympus BX43 microscope. Pictures were digitized with a numeric DP72 Olympus camera with CellSens storing software. Melanin was visualized after silver impregnation according to Masson's Fontana staining method on FFPE skin sections. The staining was assessed by microscopical observation (FIG. 5) and by image analysis (FIG. 6).

SIK1 = SIK1 (Homo sapiens (Human), UniProt P57059); experiment: cell-based
SIK (h) / SIK1 = SIK (h) / SIK1 (Homo sapiens (Human), UniProt P57059); experiment: SIK1 kinase activity, Eurofins KinaseProfiler ([γ-33P]-ATP filter assay); type: biochemical; settings: Table 6, macrocycles
Procedure: as §1
as §2, with “SIK” for “SIK2”, “[γ-33P]-ATP (specific” for “[γ-33P-ATP](specific”

SIK3 (h) = SIK3 (h) (Homo sapiens (Human), UniProt Q9Y2K2); experiment: SIK3 kinase activity, Eurofins KinaseProfiler ([γ-33P]-ATP filter assay); type: biochemical; settings: Table 6, macrocycles
Procedure: as §1
as §2, with “SIK3 (h) was” for “SIK2 (h) was”, “the reaction is stopped by” for “the reaction was stopped by”, “0.5%, […] of the” for “0.5%, 10 μL of the”

[5] = test system: living human skin explants; type: cell-based

Sequence of SIK1 (P57059 whole entry): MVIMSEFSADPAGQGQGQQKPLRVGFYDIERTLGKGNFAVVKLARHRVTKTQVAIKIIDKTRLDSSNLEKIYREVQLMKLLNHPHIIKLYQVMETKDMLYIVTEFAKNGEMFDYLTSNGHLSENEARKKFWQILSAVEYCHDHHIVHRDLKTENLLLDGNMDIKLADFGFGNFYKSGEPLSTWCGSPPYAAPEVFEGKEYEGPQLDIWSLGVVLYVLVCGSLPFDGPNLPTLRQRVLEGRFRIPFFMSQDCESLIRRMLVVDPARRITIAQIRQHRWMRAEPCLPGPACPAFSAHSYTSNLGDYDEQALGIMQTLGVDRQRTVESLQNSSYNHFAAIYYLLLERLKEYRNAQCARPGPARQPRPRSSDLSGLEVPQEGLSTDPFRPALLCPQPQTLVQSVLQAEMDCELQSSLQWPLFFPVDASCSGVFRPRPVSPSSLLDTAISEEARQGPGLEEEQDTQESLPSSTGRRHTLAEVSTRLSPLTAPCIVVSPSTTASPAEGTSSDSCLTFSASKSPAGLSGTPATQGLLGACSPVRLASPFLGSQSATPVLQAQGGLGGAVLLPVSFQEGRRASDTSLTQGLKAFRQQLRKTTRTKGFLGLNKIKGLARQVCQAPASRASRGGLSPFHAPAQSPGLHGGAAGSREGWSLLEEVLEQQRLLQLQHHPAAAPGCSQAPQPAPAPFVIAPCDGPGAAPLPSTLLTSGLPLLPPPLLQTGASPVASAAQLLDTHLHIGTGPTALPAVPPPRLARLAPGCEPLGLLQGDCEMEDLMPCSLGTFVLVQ

Row | Compound | visual skin pigmentation [1] | ring closure, isolated yield ([2]; from Cc1cccc(C)c1N1Cc2cnc(Nc3ccc(N4CCN(C)CC4)c(CC(=O)O)c3)nc2N(CCCO)C1=O, DCC/DMAP/3A MS, DCM/DMF, 25.0 °C, 2.0 h) | IC50 (SIK2 (h)) | viability of cells (B16 4A5 cells) | cell viability of epidermal and dermal structures [3] | change of surface occupied by melanin in the basal cell layer vs the vehicle ([4]; 0.2% topical) | melanin content (staining, microscopical observation) ([4]; 0.2% topical in Ethanol 70%) | surface occupied by melanin in the basal cell layer of the epidermis ([4]; 0.2% topical) | change of surface occupied by melanin in the basal cell layer vs the vehicle ([4]; 2% topical) | melanin content (staining, microscopical observation) ([4]; 2% topical in Ethanol 70%) | surface occupied by melanin in the basal cell layer of the epidermis ([4]; 2% topical) | EC50 (SIK1) | ring closure, isolated yield ([2]; from Cc1cccc(C)c1N1Cc2cnc(Nc3ccc(N4CCN(C)CC4)c(C(=O)O)c3)nc2N(CCCCO)C1=O, 2,4,6-trichlorobenzoyl chloride/TEA, DMAP, toluene/DMF, 5.0 mM, 110.0 °C, 16.0 h) | IC50 (SIK (h) / SIK1) | IC50 (SIK3 (h)) | increase of melanin in the suprabasal layers [5] | ring closure, isolated yield ([2]; from Cc1cccc(C)c1N1Cc2cnc(Nc3ccc(N4CCN(C)CC4)c(CO)c3)nc2N(CCCC(=O)O)C1=O, DCC/DMAP/3A MS, DCM/DMF, 5.37 mM, 25.0 °C, 16.0 h)
1 | COC(=O)Cc1cc(Nc2ncc3c(n2)N(CCCO)C(=O)N(c2c(C)cccc2C)C3)ccc1N1CCN(C)CC1 [SLT-045] | induced a visual skin pigmentation | – | – | – | – | – | – | – | – | – | – | – | – | – | – | – | –
2 | Cc1cccc(C)c1N1Cc2cnc3nc2N(CCCOC(=O)Cc2cc(ccc2N2CCN(C)CC2)N3)C1=O [SLT-048] | – | 21% | 0.6 nM | slightly diminished | very slightly decreased | +24% | slight increase; also recorded: increased | 10.0 | +56% | moderate increase; also recorded: highly increased | 12.6 | 2.58 nM | – | – | – | – | –
3 | Cc1cccc(C)c1N1Cc2cnc3nc2N(CCCCOC(=O)c2cc(ccc2N2CCN(C)CC2)N3)C1=O [SLT-042] | – | – | 0.7 nM | – | very slightly decreased | – | – | – | – | – | – | 2.02 nM | 22% | 2 nM | 2 nM | 25% | –
4 | Cc1cccc(C)c1N1Cc2cnc3nc2N(CCCC(=O)OCc2cc(ccc2N2CCN(C)CC2)N3)C1=O [SLT-026] | – | – | 2 nM | – | very slightly decreased | – | – | – | – | – | – | 3.24 nM | – | 2 nM | 3 nM | 50% | 9%
